In US20100292205A1, “Pyrimidone Compounds As GSK-3 Inhibitors” (PFIZER INC., priority 2006, published 2010):

Target: T1, Recombinant human GSK3β (Homo sapiens, UniProt P49841)
T1 construct: His-tag; made in house; host or cells: Sf9 insect cells / baculovirus
Assay: GSK-3β (Glycogen Synthase Kinase) cell free enzyme assay
Assay type: biochemical
Conditions: 1 μM; Examples 157-199; read-out: Percent inhibition at 1 μM
Procedure: Assay Protocol for GSK-3β (Glycogen Synthase Kinase) in a Cell Free Enzyme Assay
Recombinant human GSK3β was expressed in SF9/Baculo virus cells. His-tag protein was purified by affinity chromatography to a Ni-NTA Superflow column. Enzyme activity was assayed as the incorporation of [33P] from the gamma phosphate of [33P]ATP (PerkinElmer) into biotinylated peptide substrate bio-LC-S-R-H-S-S-P-H-Q-pS-E-D-E-E-E-OH (Anaspec). Reactions were carried out in a buffer containing 8 mM MOPS (pH 7.0), 10 mM Magnesium Acetate, 0.2 mM EDTA, 1 mM DTT and 2 uM cold ATP. The 33P-ATP was added for 0.025 uCi/well (120 uL) and the final concentration of substrate was 1.0 uM. Enzyme was preincubated with test agent for 30 minutes at room temperature followed by initiation of the reaction by the addition of substrate mix. Incubations were carried out at RT for 60 min. Reactions were stopped by addition of 0.66 volume of buffer containing: 12.5 mM EDTA, 0.25% Triton-X 100, 125 uM ATP, and 6.2 mg/ml streptavidin coated SPA beads (Amersham) in PBS without Ca or Mg. Radioactivity associated with the beads was quantified by scintillation counting of CPM in a Trilux counter (PerkinElmer).
Examples 42 to 60 were prepared using the analogous procedure described to prepare Example 41, substituting the appropriate starting material (Examples 1 to 35) and coupling with the appropriate acid. The assay protocol used is the percent inhibition at 1 μM for GSK-3β in the cell free enzyme assay described above.

T1 sequence (P49841 whole entry): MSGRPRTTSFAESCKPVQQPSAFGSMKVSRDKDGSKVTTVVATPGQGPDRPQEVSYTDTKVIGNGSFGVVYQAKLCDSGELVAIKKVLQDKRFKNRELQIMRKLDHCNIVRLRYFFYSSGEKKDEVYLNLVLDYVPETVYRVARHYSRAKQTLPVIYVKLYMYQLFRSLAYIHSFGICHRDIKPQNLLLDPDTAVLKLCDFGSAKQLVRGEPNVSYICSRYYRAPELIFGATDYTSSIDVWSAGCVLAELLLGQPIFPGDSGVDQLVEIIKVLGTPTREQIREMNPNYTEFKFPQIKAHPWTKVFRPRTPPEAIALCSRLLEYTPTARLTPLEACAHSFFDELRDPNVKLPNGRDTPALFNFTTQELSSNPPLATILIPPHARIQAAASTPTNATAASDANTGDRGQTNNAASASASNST

| Compound | inhibition at 1 µM [%] |
| --- | --- |
| Cn1c(NC[C@H]2CCCN2S(=O)(=O)c2ccccc2)nc(-c2ccncc2)cc1=O [Example 188, 3-Methyl-2-({[(2R)-1-(phenylsulfonyl)pyrrolidin-2-yl]methyl}amino)-6-pyridin-4-ylpyrimidin-4(3H)-one] | 94 |
| Cn1c(NCC2CCN(S(=O)(=O)c3ccccc3)C2)nc(-c2ccncc2)cc1=O (centres unmarked) [Example 191, 3-Methyl-2-({[1-(phenylsulfonyl)pyrrolidin-3-yl]methyl}amino)-6-pyridin-4-ylpyrimidin-4(3H)-one] | 76 |
| CN(c1nc(-c2ccncc2)cc(=O)n1C)[C@@H]1CC[C@H]2N(S(=O)(=O)Cc3ccccc3)CCC2(C)C1 (stereo partly drawn) [Example 195, 2-{[(3,aS5,R7,aR)-1-(Benzylsulfonyl)-3a-methyloctahydro-1H-indol-5-yl](methyl)amino}-3-methyl-6-pyridin-4-ylpyrimidin-4(3H)-one] | 92 |
| CN(c1nc(-c2ccncc2)cc(=O)n1C)[C@@H]1CC[C@H]2N(S(=O)(=O)c3ccccc3)CC[C@@]2(C)C1 [Example 183, 3-Methyl-2-{methyl[(3,aS5,R7,aR)-3a-methyl-1-(phenylsulfonyl)octahydro-1H-indol-5-yl]amino}-6-pyridin-4-ylpyrimidin-4(3H)-one] | 100 |
| Cn1c(NC2CCCN(S(=O)(=O)c3ccccc3)C2)nc(-c2ccncc2)cc1=O (centres unmarked) [Example 179, 3-Methy-2-{[1-(phenylsulfonyl)piperidin-3-yl]amino}-6-pyridin-4-ylpyrimidin-4(3H)-one] | 93 |

Same assay, conditions: 1 μM; Examples 236-262; read-out: Percent inhibition at 1 μM

| Compound | inhibition at 1 µM [%] |
| --- | --- |
| CN(c1nc(-c2ccncc2)cc(=O)n1C)[C@@H]1CC[C@H]2N(Cc3ccccc3)CC[C@@]2(C)C1 [Example 258, 2-{[(3a,S5,R7,aR)-1-Benzyl-3a-methyloctahydro-1H-indol-5-yl](methyl)amino}-3-methyl-6-pyridin-4-ylpyrimidin-4(3H)-one] | 43 |

Same assay, conditions: cell free enzyme assay; Examples 1-35

| Compound | IC50 [nM] |
| --- | --- |
| Cn1c(NCC2CCCN2C(=O)OC(C)(C)C)nc(-c2ccncc2)cc1=O (centres unmarked) [Example 18, tert-butyl 2-{[(1-Methyl-6-oxo-4-pyridin-4-yl-1,6-dihydropyrimidin-2-yl)amino]methyl} pyrrolidine-1-carboxylate] | 108 |
| Cn1c(NC2CCCN(C(=O)OC(C)(C)C)C2)nc(-c2ccncc2)cc1=O (centres unmarked) [Example 19, tert-butyl 3-[(1-Methyl-6-oxo-4-pyridin-4-yl-1,6-dihydropyrimidin-2-yl)amino]piperidine-1-carboxylate] | 42 |

Same assay, conditions: cell free enzyme assay; Examples 62-155

| Compound | IC50 [nM] |
| --- | --- |
| CCN(c1nc(-c2ccncc2)cc(=O)n1C)C1CCCN(C(=O)Cc2ccccc2)CC1 (centres unmarked) [Example 89, 2-{Ethyl[1-(phenylacetyl)azepan-4-yl]amino}-3-methyl-6-pyridin-4-ylpyrimidin-4(3H)-one] | 64.6 |
| COc1cccc(CC(=O)N2C[C@@H]3[C@H](C2)[C@H]3N(C)c2nc(-c3ccncc3F)cc(=O)n2C)c1 [Example 101, 6-(3-Fluoropyridin-4-yl)-2-[{(1R,5S,6s)-3-[(3-methoxyphenyl)acetyl]-3-azabicyclo[3.1.0]hex-6-yl}(methyl)amino]-3-methylpyrimidin-4(3H)-one] | 13.6 |
| CN(c1nc(-c2ccncc2F)cc(=O)n1C)[C@H]1[C@@H]2CN(C(=O)c3cccnc3Cl)C[C@@H]21 [Example 111, 2-[{(1R,5S,6s)-3-[(2-Chloropyridin-3-yl)carbonyl]-3-azabicyclo[3.1.0]hex-6-yl}(methyl)amino]-6-(3-fluoropyridin-4-yl)-3-methylpyrimidin-4(3H)-one] | 2.2 |
| CN(c1nc(-c2ccncc2F)cc(=O)n1C)[C@H]1[C@@H]2CN(C(=O)c3cnn(C)c3Cl)C[C@@H]21 [Example 120, 2-[{(1R,5S,6s)-3-[(5-Chloro-1-methyl-1H-pyrazol-4-yl)carbonyl]-3-azabicyclo[3.1.0]hex-6-yl}(methyl)amino]-6-(3-fluoropyridin-4-yl)-3-methylpyrimidin-4(3H)-one] | 4.52 |
| CCC(=O)N1C[C@@H]2[C@H](C1)[C@H]2N(C)c1nc(-c2ccncc2F)cc(=O)n1C [Example 135, 6-(3-Fluoropyridin-4-yl)-3-methyl-2-{methyl[(1R,5S,6s)-3-propionyl-3-azabicyclo[3.1.0]hex-6-yl]amino}pyrimidin-4(3H)-one] | 5.46 |
| Cc1ccc(C(=O)N2C[C@@H]3[C@H](C2)[C@H]3N(C)c2nc(-c3ccncc3F)cc(=O)n2C)cc1F [Example 133, 2-{[(1R,5S,6s)-3-(3-Fluoro-4-methylbenzoyl)-3-azabicyclo[3.1.0]hex-6-yl](methyl)amino}-6-(3-fluoropyridin-4-yl)-3-methylpyrimidin-4(3H)-one] | 2.91 |
| CN(c1nc(-c2ccncc2F)cc(=O)n1C)[C@H]1[C@@H]2CN(C(=O)c3cc(F)ccc3F)C[C@@H]21 [Example 130, 2-{[(1R,5S,6s)-3-(2,5-Difluorobenzoyl)-3-azabicyclo[3.1.0]hex-6-yl](methyl)amino}-6-(3-fluoropyridin-4-yl)-3-methylpyrimidin-4(3H)-one] | 1.69 |
| Cn1c(NC[C@@H]2CCCN2C(=O)c2ccccc2)nc(-c2ccncc2)cc1=O [Example 75, 2-({[(2S)-1-Benzoylpyrrolidin-2-yl]methyl}amino)-3-methyl-6-pyridin-4-ylpyrimidin-4(3H)-one] | 183 |
| Cc1ccc(C(=O)N2C[C@@H]3[C@H](C2)[C@H]3N(C)c2nc(-c3ccncc3F)cc(=O)n2C)cc1 [Example 142, 6-(3-Fluoropyridin-4-yl)-3-methyl-2-{methyl[(1R,5S,6s)-3-(4-methylbenzoyl)-3-azabicyclo[3.1.0]hex-6-yl]amino}pyrimidin-4(3H)-one] | 3.51 |
| CN(c1nc(-c2ccncc2)cc(=O)n1C)C1CCN(C(=O)c2ccccc2)C1 (centres unmarked) [Example 70, 2-[(1-Benzoylpyrrolidin-3-yl)(methyl)amino]-3-methyl-6-pyridin-4-ylpyrimidin-4(3H)-one] | 170 |
| CCC(CC)C(=O)N1C[C@@H]2[C@H](C1)[C@H]2N(C)c1nc(-c2ccncc2F)cc(=O)n1C [Example 127, 2-{[(1R,5S,6s)-3-(2-Ethylbutanoyl)-3-azabicyclo[3.1.0]hex-6-yl](methyl)amino}-6-(3-fluoropyridin-4-yl)-3-methylpyrimidin-4(3H)-one] | 4.41 |
| CN(c1nc(-c2ccncc2F)cc(=O)n1C)[C@H]1[C@@H]2CN(C(=O)c3cccc(F)c3F)C[C@@H]21 [Example 137, 2-{[(1R,5S,6s)-3-(2,3-Difluorobenzoyl)-3-azabicyclo[3.1.0]hex-6-yl](methyl)amino}-6-(3-fluoropyridin-4-yl)-3-methylpyrimidin-4(3H)-one] | 3.29 |

Same assay, conditions: cell free enzyme assay; Examples 222-234

| Compound | IC50 [nM] |
| --- | --- |
| CCOC(=O)N1CCC[C@H]1CN(CC)c1nc(-c2ccncn2)cc(=O)n1C [Example 225, Ethyl (2S)-2-{[ethyl(1-methyl-6-oxo-1,6-dihydro-4,4′-bipyrimidin-2-yl)amino]methyl}pyrrolidine-1-carboxylate] | 0.755 |

Same assay, conditions: cell free enzyme assay; Examples 265-291

| Compound | IC50 [nM] |
| --- | --- |
| Cc1nc(N2C[C@@H]3[C@H](C2)[C@H]3N(C)c2nc(-c3ccncc3F)cc(=O)n2C)n2nc(-c3ccccc3Cl)c(I)c2n1 [Example 285, 2-[{(1R,5S,6s)-3-[7-(2-Chlorophenyl)-8-iodo-2-methylpyrazolo[1,5-a][1,3,5]triazin-4-yl]-3-azabicyclo[3.1.0]hex-6-yl}(methyl)amino]-6-(3-fluoropyridin-4-yl)-3-methylpyrimidin-4(3H)-one] | 5670 |
| CN(c1nc(-c2ccncc2F)cc(=O)n1C)[C@H]1[C@@H]2CN(c3nnnn3-c3cccc(OC(F)(F)F)c3)C[C@@H]21 [Example 291, 6-(3-Fluoropyridin-4-yl)-3-methyl-2-{methyl[(1R,5S,6s)-3-{1-[3-(trifluoromethoxy)phenyl]-1H-tetrazol-5-yl}-3-azabicyclo[3.1.0]hex-6-yl]amino}pyrimidin-4(3H)-one] | 5.99 |
| Cc1nnc2c(N3C[C@@H]4[C@H](C3)[C@H]4N(C)c3nc(-c4ccncc4F)cc(=O)n3C)nc(-c3ccccc3)cn12 [Example 274, 6-(3-Fluoropyridin-4-yl)-3-methyl-2-{methyl[(1R,5S,6s)-3-(3-methyl-6-phenyl[1,2,4]triazolo[4,3-a]pyrazin-8-yl)-3-azabicyclo[3.1.0]hex-6-yl]amino}pyrimidin-4(3H)-one] | 234 |
| CN(c1nc(-c2ccncc2F)cc(=O)n1C)[C@H]1[C@@H]2CN(c3nnnn3C)C[C@@H]21 [Example 279, 6-(3-Fluoropyridin-4-yl)-3-methyl-2-{methyl[(1R,5S,6s)-3-(1-methyl-1H-tetrazol-5-yl)-3-azabicyclo[3.1.0]hex-6-yl]amino}pyrimidin-4(3H)-one] | 58.6 |
| CCc1cn2nc(N3C[C@@H]4[C@H](C3)[C@H]4N(C)c3nc(-c4ccncc4F)cc(=O)n3C)ccc2n1 [Example 265, 2-{[(1R,5S,6s)-3-(2-Ethylimidazo[1,2-b]pyridazin-6-yl)-3-azabicyclo[3.1.0]hex-6-yl](methyl)amino}-6-(3-fluoropyridin-4-yl)-3-methylpyrimidin-4(3H)-one] | 52.4 |
